Source: patent US11555036B2, “FGFR4 inhibitor, preparation method therefor and pharmaceutical use thereof” (Abbisko Therapeutics Co., Ltd., priority 2016, dated 2023)

Assays:
FGFR4 = FGFR4 (Homo sapiens, UniProt P22455); assay: FGFR4 Caliper Assay (in vitro biochemical kinase analysis of FGFR4); conditions: read-out: Enzymatic activity FGFR4 IC50
Protocol: I. In Vitro Biochemical Kinase Analysis of FGFR4
FGFR4 Caliper Assay was used in the present invention to determine the inhibitory activities of the compounds against FGFR4. The detailed experimental procedure was as follows.
2. A reaction system is a mixture solution of 50 mM HEPES, pH 7.5, 1 mM DTT, 0.02% Tween 20, 0.02% BSA, 0.6% DMSO, 10 mM beta glycerol phosphate and 10 μM sodium orthovanadate and 16 mM MgCl2.
3. The reaction system was incubated at 30° C. for 40 minutes.
4. The reaction was terminated by adding a stop solution (100 mM HEPES, pH 7.5, 5% DMSO, 0.1% Caliper coating reagent, 10 mM EDTA and 0.015% Brij35).
5. The culture plate with the terminated kinase reaction was transferred to the Caliper LC 3000 workstation to read the data, the phosphorylated and unphosphorylated peptides were separated by using the Caliper microfluid migration shift technique, and the analyte was transferred by allowing a constant buffer flow through the chip, the migration of the substrate peptide was monitored by the labeled fluorescent signal, and the kinase activity was calculated by using the amount of the phosphate-based peptide formed.
6. Finally, IC50 values were determined by non-linear regression analysis of percent inhibition at different compound concentrations.

[1] = tested on: Huh7 hepatocellular carcinoma cells; assay: FGFR4 cell proliferation experiment, Cell Titer Glo (CTG); type: cell-based; conditions: Homo sapiens, Huh-7, 72 h, HuH-7 cells, 3 days; for IC50: concentration leading to absolute half growth inhibition; for EC50: concentration leading to half maximal growth inhibition
Protocol: II. FGFR4 Cell Proliferation Experiment
Cell Titer Glo (CTG) experiment was used in the present invention to evaluate the functional effects of the compounds on cell proliferation. […] Compound-mediated inhibition of cell proliferation/survival was assessed by quantification of cellular ATP levels using CTG reagent (Promega, #G7573). The specific experimental procedure was as follows:
2. 10 μL of medium containing a compound concentration of 10 fold of its final test concentration was added;
3. The dose effect was evaluated by a 5-fold serial dilution of the test compound, starting from 10 μM.
4. After cells incubation for 3 days at 37° C. under 5% CO2, the effect of the inhibitor on cell proliferation was quantified after adding 50 μL of CTG and testing with luminescence.

Chain of FGFR4 (P22455 22-802): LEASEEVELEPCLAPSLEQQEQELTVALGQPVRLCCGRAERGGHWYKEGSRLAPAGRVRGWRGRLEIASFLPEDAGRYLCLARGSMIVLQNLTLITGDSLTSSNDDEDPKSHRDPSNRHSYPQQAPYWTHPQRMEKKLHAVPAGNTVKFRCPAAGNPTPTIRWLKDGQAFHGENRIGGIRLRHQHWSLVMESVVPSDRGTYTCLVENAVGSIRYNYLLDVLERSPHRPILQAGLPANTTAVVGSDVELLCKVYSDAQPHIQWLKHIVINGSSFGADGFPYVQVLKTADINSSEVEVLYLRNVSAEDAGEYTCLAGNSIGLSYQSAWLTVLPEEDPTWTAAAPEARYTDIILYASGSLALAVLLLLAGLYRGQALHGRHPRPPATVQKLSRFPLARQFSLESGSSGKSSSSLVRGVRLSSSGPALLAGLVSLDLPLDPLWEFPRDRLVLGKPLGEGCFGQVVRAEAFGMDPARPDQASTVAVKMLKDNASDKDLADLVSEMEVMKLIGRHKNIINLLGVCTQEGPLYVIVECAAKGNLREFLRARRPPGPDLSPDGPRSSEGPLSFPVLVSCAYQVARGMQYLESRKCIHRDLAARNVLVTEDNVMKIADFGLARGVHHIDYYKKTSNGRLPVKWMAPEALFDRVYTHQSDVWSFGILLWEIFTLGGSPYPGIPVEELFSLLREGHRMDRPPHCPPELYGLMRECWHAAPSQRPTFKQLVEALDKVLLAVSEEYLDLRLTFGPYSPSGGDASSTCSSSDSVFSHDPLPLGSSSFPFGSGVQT

Structure (SMILES) | IC50 (FGFR4) | IC50 [1] | EC50 [1]
C=CC(=O)N[C@H]1COC[C@H]1Nc1ncc2cc(-c3c(Cl)c(OC)cc(OC)c3Cl)nc(NCCNS(C)(=O)=O)c2n1 [Example 430, N-((3R,4S)-4-((6-(2,6-dichloro-3,5-dimethoxyphenyl)-8-((2-(methyl-sulfonamido)ethyl)a-mino)pyrido[3,4-d]pyri-midin-2-yl)amino)tetrahydrofuran-3-yl)acrylamide] | 19.1 nM | 93.5 nM | 32 nM
C=CC(=O)N[C@H]1COC[C@H]1Nc1ncc2cc(-c3c(Cl)c(OC)cc(OC)c3Cl)nc(NCCCN(C)C)c2n1 [Example 432, N-((3R,4S)-4-((6-(2,6-dichloro-3,5-di-methoxyphenyl)-8-((3-(dimethylami-no)propyl)amino)pyrido[3,4-d]pyrimi-din-2-yl)amino)tetrahydrofuran-3-yl) acrylamide] | 106 nM | 934 nM | 396 nM
C=CC(=O)N[C@H]1COC[C@H]1Nc1ncc2cc(-c3c(Cl)c(OC)cc(OC)c3Cl)nc(NC)c2n1 [Example 433, N-((3R,4S)-4-((6-(2,6-dichloro-3,5-dimethoxyphenyl)-8-(methylamino)pyrido[3,4-d]pyrimidin-2-yl)amino)tetrahydrofuran-3-yl)acrylamide] | 7.6 nM | 26.1 nM | 19.3 nM
C=CC(=O)N[C@H]1COC[C@H]1Nc1ncc2cc(-c3c(Cl)c(OC)cc(OC)c3Cl)nc(NCC)c2n1 [Example 434] | 8.4 nM | 18.2 nM | 9.6 nM
C=CC(=O)N[C@H]1COC[C@H]1Nc1ncc2cc(-c3c(Cl)c(OC)cc(OC)c3Cl)nc(NCC(F)(F)F)c2n1 [Example 435, N-((3R,4S)-4-((6-(2,6-dichloro-3,5-di-methoxyphenyl)-8-((2,2,2-trifluoroeth-yl)amino)pyrido[3,4-d]pyrimidin-2-yl)amino)tetrahydrofuran-3-yl)acryl-amide] | 67 nM | 148 nM | 80 nM
C=CC(=O)N[C@H]1COC[C@H]1Nc1ncc2cc(-c3c(Cl)c(OC)cc(OC)c3Cl)nc(NC[C@H]3CCCO3)c2n1 [Example 438A, N-((3R,4S)-4-((6-(2,6-dichloro-3,5-di-methoxyphenyl)-8-((((R)-tetrahydro-furan-2-yl)methyl)amino)pyrido[3,4-d]pyrimidin-2-yl)amino)tetrahydro-furan-3-yl)acrylamide] | 3.5 nM | 17.8 nM | 9.9 nM
C=CC(=O)N[C@H]1COC[C@H]1Nc1ncc2cc(-c3c(Cl)c(OC)cc(OC)c3Cl)nc(NC[C@@H]3CCCO3)c2n1 [Example 438B, N-((3R,4S)-4-((6-(2,6-dichloro-3,5-di-methoxyphenyl)-8-((((S)-tetrahydro-furan-2-yl)methyl)amino)pyrido[3,4-d]pyrimidin-2-yl)amino)tetrahydro-furan-3-yl)acrylamide] | 9.1 nM | 35.1 nM | 15.8 nM
C=CC(=O)N[C@H]1COC[C@H]1Nc1ncc2cc(-c3c(Cl)c(OC)cc(OC)c3Cl)nc(NC3CCOC3)c2n1 (stereo partly drawn) [Example 443, N-((3R,4S)-4-((6-(2,6-dichloro-3,5-di-methoxyphenyl)-8-((tetrahydrofuran-3-yl)amino)pyrido[3,4-d]pyrimidin-2-yl)amino)tetrahydrofuran-3-yl) acrylamide] | 8.2 nM | 70.8 nM | 15.9 nM
C=CC(=O)N[C@H]1COC[C@H]1Nc1ncc2cc(-c3c(Cl)c(OC)cc(OC)c3Cl)nc(NC3CC(F)(F)C3)c2n1 [Example 452, N-((3R,4S)-4-((6-(2,6-dichloro-3,5-di-methoxyphenyl)-8-((3,3-difluorocyclo-butyl)amino)pyrido[3,4-d]pyrimidin-2-yl)amino)tetrahydrofuran-3-yl) acrylamide] | 42.2 nM | 53.3 nM | 20.3 nM
C=CC(=O)N[C@H]1COC[C@H]1Nc1ncc2cc(-c3c(Cl)c(OC)cc(OC)c3Cl)nc(NCC3CCCC3)c2n1 [Example 454, N-((3R,4S)-4-((8-((cyclopentylmeth-yl)amino)-6-(2,6-dichloro-3,5-dimeth-oxyphenyl)pyrido[3,4-d]pyrimidin-2-yl)amino)tetrahydrofuran-3-yl)acryl-amide] | 66.9 nM | 89.2 nM | 40.8 nM
C=CC(=O)N[C@H]1COC[C@H]1Nc1ncc2cc(-c3c(Cl)c(OC)cc(OC)c3Cl)nc(NCCc3ccccc3)c2n1 [Example 456, N-((3R,4S)-4-((6-(2,6-dichloro-3,5-di-methoxyphenyl)-8-(phenethylamino)pyrido[3,4-d]pyrimidin-2-yl)amino)tetrahydrofuran-3-yl)acrylamide] | 82.4 nM | 299 nM | 163 nM
C=CC(=O)N[C@H]1COC[C@H]1Nc1ncc2cc(-c3c(Cl)c(OC)cc(OC)c3Cl)nc(NCc3cnn(C)c3)c2n1 [Example 459, N-((3R,4S)-4-((6-(2,6-dichloro-3,5-di-methoxyphenyl)-8-(((1-methyl-1H-pyrazol-4-yl)methyl)amino)pyrido[3,4-d]pyrimidin-2-yl)amino)tetrahydro-furan-3-yl)acrylamide] | 17.3 nM | 58 nM | 23.8 nM
C=CC(=O)N[C@H]1COC[C@H]1Nc1ncc2cc(-c3c(Cl)c(OC)cc(OC)c3Cl)nc(NCC(C)(C)C)c2n1 [Example 462, N-((3R,4S)-4-((6-(2,6-dichloro-3,5-di-methoxyphenyl)-8-(neopentylamino)pyrido[3,4-d]pyrimidin-2-yl)amino)tetrahydrofuran-3-yl)acrylamide] | 14.5 nM | 38.3 nM | 24.6 nM
C=CC(=O)N[C@H]1COC[C@H]1Nc1ncc2cc(-c3cc(OC)cc(OC)c3Cl)nc(NCC3CC3)c2n1 [Example 475, N-((3R,4S)-4-((6-(2-chloro-3,5-dimeth-oxyphenyl)-8-((cyclopropylmethyl)a-mino)pyrido[3,4-d]pyrimidin-2-yl)a-mino)tetrahydrofuran-3-yl)acrylamide] | 62 nM | 678 nM | 132 nM
C=CC(=O)N[C@H]1COC[C@H]1Nc1ncc2cc(-c3c(Cl)c(OC)cc(OC)c3Cl)nc(OCC3CC3)c2n1 [Example 498, N-((3R,4S)-4-((8-(cyclopropylmethoxy)-6-(2,6-dichloro-3,5-dimethoxyphen-nyl)pyrido[3,4-d]pyrimidin-2-yl)amino)tetrahydrofuran-3-yl)acrylamide] | 8800 nM | > 10000 nM | 2390 nM
C=CC(=O)N[C@H]1CCOC[C@H]1Nc1ncc2cc(-c3c(Cl)c(OC)cc(OC)c3Cl)nc(NCC3CC3)c2n1 [Example 501, N-((3S,4S)-3-((8-((cyclopropylmeth-yl)amino)-6-(2,6-dichloro-3,5-dimeth-oxyphenyl)pyrido[3,4-d]pyrimidin-2-yl)amino)tetrahydro-2H-pyran-4-yl)acrylamide] | 15.7 nM | 49.9 nM | 17.8 nM
C=CC(=O)N[C@H]1COC[C@H]1Nc1ncc2cc(-c3c(Cl)c(OC)cc(OC)c3Cl)nc(C)c2n1 [Example 606, N-((3R,4S)-4-((6-(2,6-dichloro-3,5-di-methoxyphenyl)-8-methylpyrido[3,4-d]pyrimidin-2-yl)amino)tetrahydro-furan-3-yl)acrylamide] | 23.4 nM | 41.1 nM | 25.7 nM
C=CC(=O)N[C@H]1COC[C@H]1Nc1ncc2cc(-c3c(Cl)c(OC)cc(OC)c3Cl)nc(-c3cnn(C)c3)c2n1 [Example 629, N-((3R,4S)-4-((6-(2,6-dichloro-3,5-di-methoxyphenyl)-8-(1-methyl-1H-pyrazol-4-yl)pyrido[3,4-d]pyrimidin-2-yl)amino)tetrahydrofuran-3-yl)acryl-amide] | 2.9 nM | 4 nM | 2.6 nM
C=CC(=O)N[C@H]1COC[C@H]1Nc1ncc2cc(-c3c(F)c(OC)cc(OC)c3F)nc(-c3cnn(C)c3)c2n1 [Example 637, N-((3R,4S)-4-((6-(2,6-difluoro-3,5-dimethoxyphenyl)-8-(1-methyl-1H-py-razol-4-yl)pyrido[3,4-d]pyrimidin-2-yl)amino)tetrahydrofuran-3-yl)acryl-amide] | 4.2 nM | 17.3 nM | 10.1 nM
C=CC(=O)N[C@H]1COC[C@H]1Nc1ncc2cc(-c3c(Cl)c(OC)cc(OC)c3Cl)nc(NC3CC3)c2n1 [Example 655, N-((3R,4S)-4-((8-(cyclopropylamino)-6-(2,6-dichloro-3,5-dimethoxyphen-yl)pyrido[3,4-d]pyrimidin-2-yl)amino)tetrahydrofuran-3-yl)acrylamide] | 8 nM | 68.4 nM | 28 nM
